Converted amounts (≈) assume the structure as drawn.
Key:
[1] = tested on: E. coli K-12 strain; experiment: MIC (MIC90) by broth microdilution, E. coli K-12 strain expressing TEM β-lactamase variants; assay type: cell-based; conditions: for MIC: E. coli K-12 strain, no plasmid (no TEM β-lactamase), MIC90
Method: (§1) Plasmids were then transformed into BL21(DE3) cells (Intact Genomics) and DH5a cells (Life Technologies) to create strains in which β-lactamases are expressed using a native promoter.
(§2) Antibiotic resistance of the strains was determined by measuring their minimum inhibitory concentrations (MIC90's) using the broth microdilution method according to the Clinical and Laboratory Standards Institute (CLSI, formerly the NCCLS) guidelines (CLSI document M07-A9, 2012). Each well of a 96-well microtiter plate was filled with 75 μL of sterile Mueller Hinton II (MHII) media broth (Sigma). Each antibiotic was dissolved in water making a 20 mM solution, then diluted with sterile MHII media broth to […] (BP) or 288 μM (CFX). Exactly 75 μL of the compound solution was added to the first well of the microtiter plate and 2-fold serial dilutions were made down each row of the plate. Exactly 75 μL of bacterial inoculum (5×10^5 CFU/mL) was then added to each well giving a total volume of 150 μL/well and compound concentration gradients of […] (BP) and 72 μM-0.04 μM (CXF). The plate was incubated at 37° C. for 17 h, and then each well was examined for bacterial growth. The MIC90 was recorded as the lowest compound concentration required to inhibit 90% of bacterial growth as judged by turbidity of the culture media relative to a row of wells filled with a water standard. Gentamicin was included in a control row at a concentration gradient of 174 μM-0.09 μM.

[2] = tested on: E. coli B strain; experiment: MIC (MIC90) by broth microdilution, E. coli B strain expressing TEM β-lactamase variants; assay type: cell-based; conditions: for MIC: E. coli B strain, no plasmid (no TEM β-lactamase), MIC90
Method: as §1, §2

Molecule CC1(C)S[C@@H]2[C@H](NC(=O)Cc3ccccc3)C(=O)N2[C@H]1C(=O)O [BP, benzylpenicillin] has an MIC ([1]; Escherichia coli, K12STRAIN) of 50 µM (≈ 16.7 µg/mL) and an MIC ([2]; Escherichia coli) of under 23 µM.

CO/N=C(\C(=O)N[C@@H]1C(=O)N2C(C(=O)O)=C(COC(C)=O)CS[C@H]12)c1csc(N)n1 [CFX, cefotaxime] showed an MIC [1] of under 0.035 µM and an MIC [2] of under 0.035 µM.

Gentamicin showed an MIC [1] of 0.34 µM and an MIC [2] of 0.68 µM.

B1: TEM-1: wild-type TEM β-lactamase reference (protein, UniProt P62593 24-286, looked up)
Beta-lactamase TEM: HPETLVKVKDAEDQLGARVGYIELDLNSGKILESFRPEERFPMMSTFKVLLCGAVLSRVDAGQEQLGRRIHYSQNDLVEYSPVTEKHLTDGMTVRELCSAAITMSDNTAANLLLTTIGGPKELTAFLHNMGDHVTRLDRWEPELNEAIPNDERDTTMPAAMATTLRKLLTGELLTLASRQQLIDWMEADKVAGPLLRSALPAGWFIADKSGAGERGSRGIIAALGPDGKPSRIVVIYTTGSQATMDERNRQIAEIGASLIKHW
With B1 the “BP MIC” value ([1]; benzylpenicillin (BP), E. coli K-12 strain expressing the TEM variant, MIC90, 37° C., 17 h) was 24000 µM, the “CFX MIC” value ([1]; cefotaxime (CFX), E. coli K-12 strain expressing the TEM variant, MIC90, 37° C., 17 h) was under 0.035 µM and the “Gentamicin MIC” value ([1]; gentamicin (control antibiotic), E. coli K-12 strain expressing the TEM variant, MIC90, 37° C., 17 h) was 0.17 µM. The “BP MIC” value ([2]; benzylpenicillin (BP), E. coli B strain expressing the TEM variant, MIC90, 37° C., 17 h, most commonly observed value, error +/− one well) was 24000 µM, the “CFX MIC” value ([2]; cefotaxime (CFX), E. coli B strain expressing the TEM variant, MIC90, 37° C., 17 h) was under 0.035 µM and the “Gentamicin MIC” value ([2]; gentamicin (control antibiotic), E. coli B strain expressing the TEM variant, MIC90, 37° C., 17 h) was 0.68 µM.
